# Results: patent publication US8410144B2, “Substituted indolo-pyridinone compounds” (ArQule, Inc., priority 2009, dated 2013)
# Tests used:
# DLD-1 = test: MTS assay, DLD-1 cells; format: cell-based; details: Homo sapiens, 72 hours, read-out: DLD-1, MTS cell kill % inhibition
# Procedure: (§1) Cells were maintained at 37° C., 5% CO2 in DMEM media supplemented with 1% fetal bovine serum, penicillin/streptomycin and fungizone (Invitrogen). Cells were seeded into 96-well tissue culture plates at 3000 per well and cultured at 37° C. for 18 hours. Test compounds were dissolved and diluted to 300× in DMSO then diluted 1:40 in DMEM. Cells were incubated with test compounds for 72 hours followed by incubation with tetrazolium compound (3-(4,5-dimethylthiazol-2-yl)-5-(3-carboxymethoxyphenyl)-2-(4-sulfophenyl)-2H-tetrazolium, inner salt; MTS) and the electron coupling reagent, phenazine methosulfate (PMS) for 4 hours. […] The ability of compounds to inhibit cell growth in this assay is correlated with the reduction of dehydrogenase enzyme activity found in metabolically active cells. The measurement of the absorbance of the formazan was assessed using an ENVISION™ (Perkin Elmer) microplate reader at 492 nm. The calculated IC50 value is the concentration of the test compound that causes a 50% decrease in the absorbance.
# MDA-MB-231 = test: MTS assay, MDA-MB-231 cells; format: cell-based; details: Homo sapiens, 72 hours, read-out: MDA-MB-231, MTS cell kill % inhibition
# Procedure: as §1
# KATO III = test: MTS assay, KATO III cells; format: cell-based; details: Homo sapiens, 72 hours, read-out: KATO III, MTS cell kill % inhibition
# Procedure: as §1
# NCI-H1299 = test: MTS assay, NCI-H1299 cells; format: cell-based; details: Homo sapiens, 72 hours, read-out: NCI-H1299, MTS cell kill % inhibition
# Procedure: as §1
# IGF-1R = IGF-1R (Homo sapiens, UniProt P08069); test: IGFR1 activity assay (ELISA); format: biochemical; details: read-out: IGF-1R, PCT INH (30 μM), ELISA
# Chain of IGF-1R (P08069 31-1367): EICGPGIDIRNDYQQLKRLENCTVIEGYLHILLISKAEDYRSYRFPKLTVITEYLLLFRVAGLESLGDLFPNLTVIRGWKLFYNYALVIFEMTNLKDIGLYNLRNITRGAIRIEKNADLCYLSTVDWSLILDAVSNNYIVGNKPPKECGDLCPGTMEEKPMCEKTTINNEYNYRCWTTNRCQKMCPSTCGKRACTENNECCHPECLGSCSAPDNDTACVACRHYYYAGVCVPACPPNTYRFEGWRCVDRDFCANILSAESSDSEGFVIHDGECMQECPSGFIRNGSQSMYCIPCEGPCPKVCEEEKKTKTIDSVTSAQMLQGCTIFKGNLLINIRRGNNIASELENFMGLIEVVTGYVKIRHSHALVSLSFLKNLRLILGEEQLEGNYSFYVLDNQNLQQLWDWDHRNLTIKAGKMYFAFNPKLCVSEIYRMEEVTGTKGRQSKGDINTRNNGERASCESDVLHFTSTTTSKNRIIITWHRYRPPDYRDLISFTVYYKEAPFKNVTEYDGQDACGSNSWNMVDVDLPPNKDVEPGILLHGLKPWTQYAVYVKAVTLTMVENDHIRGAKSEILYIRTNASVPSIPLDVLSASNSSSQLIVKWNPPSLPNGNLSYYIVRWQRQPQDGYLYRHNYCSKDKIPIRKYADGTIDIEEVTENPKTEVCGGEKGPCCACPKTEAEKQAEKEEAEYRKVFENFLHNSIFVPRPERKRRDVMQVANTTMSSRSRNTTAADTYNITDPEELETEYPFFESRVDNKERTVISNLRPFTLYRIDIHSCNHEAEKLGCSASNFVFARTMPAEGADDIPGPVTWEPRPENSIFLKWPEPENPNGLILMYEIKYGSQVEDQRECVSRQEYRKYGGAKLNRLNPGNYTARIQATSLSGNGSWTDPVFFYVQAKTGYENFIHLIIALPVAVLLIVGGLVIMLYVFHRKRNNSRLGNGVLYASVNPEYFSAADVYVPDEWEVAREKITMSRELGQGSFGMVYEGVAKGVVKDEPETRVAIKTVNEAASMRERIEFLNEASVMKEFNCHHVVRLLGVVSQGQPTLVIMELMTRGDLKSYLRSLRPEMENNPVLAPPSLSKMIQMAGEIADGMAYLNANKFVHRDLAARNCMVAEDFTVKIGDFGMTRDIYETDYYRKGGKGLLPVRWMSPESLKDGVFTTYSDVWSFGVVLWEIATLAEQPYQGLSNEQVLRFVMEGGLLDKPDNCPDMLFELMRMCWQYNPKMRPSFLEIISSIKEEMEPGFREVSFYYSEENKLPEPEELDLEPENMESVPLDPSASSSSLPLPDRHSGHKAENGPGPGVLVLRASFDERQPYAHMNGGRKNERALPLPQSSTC
# Procedure: The disclosed compounds were assayed for their ability to inhibit insulin-like growth factor receptor-1 (IGFR1). Nunc Maxisorb plates were coated with streptavidin by overnight incubation with 100 μL per well of 1 μg/ml Streptavidin in DPBS. Prior to the start of the experiment, the plates were washed with TBST (3×200 μL) and blocked for at least 1 hour by adding 150 μL of 5% BSA/TBST. The plates were washed with TBST (3×200 μL/well) and left to dry immediately before the capture step.
# The disclosed test articles and controls (Staurosporine) were prepared using the following assay buffer at 3× desired final concentration (50 mM Tris-HCl, 0.02 mg/ml BSA, 10 mM MgCl2, 0.1 mM Na3VO4, 1 mM EGTA, 12.5 μM ATP, 0.01% NP-40, 1 mM DTT in 10% glycerol/water). 20 μL of the test compounds (or control), 20 μL IGF1R (0.33 ng/μL final concentration), and 20 μL of Pyk-2 (0.05 ng/μL final concentration) were rapidly added to the reaction plate. The plate was incubated at room temperature for one hour.
# 50 μL was transferred from the reaction plate to the streptavidin coated plate. The capture plate was incubated at room temperature for 30 minutes, then washed with TBST three times. 100 μL/well of Cell Signaling anti-phospho tyrosine was added to the capture plate at a dilution of 1:3000 in 2% BSA/TBST. The plate was incubated for one hour at room temperature then washed 6× with TBST. 100 μL/well of alkaline phosphatase tagged goat anti mouse antibody was added to the capture plate at a dilution of 1:4000 in 2% BSA/TBST. The plate was incubated for one hour at room temperature then washed with TBST six times.
# The fluorescent readout is initiated by the addition of 100 μL/well of Attophos reagent (6 mg/10 mL). The reading is done on the Perkin Elmer Envision system.
melting point [°C],inhibition at 30 µM (IGF-1R) [%],SMILES,inhibition at 10 µM (DLD-1) [%],inhibition at 10 µM (MDA-MB-231) [%],inhibition at 10 µM (KATO III) [%],inhibition at 10 µM (NCI-H1299) [%]
89 to 92,–,"CC(C)c1cccc(-c2c(-c3ccc[nH]c3=O)[nH]c3ccc(C(=O)NCCCN4CCOCC4)cc23)c1 [Compound 71, 3-(3-isopropylphenyl)-N-(3-morpholin-4-ylpropyl)-2-(2-oxo-1,2-dihydropyridin-3-yl)-1H-indole-5-carboxamide]",80 to 100,80 to 100,80 to 100,80 to 100
215 to 217,–,"O=c1[nH]cccc1-c1[nH]c2ccccc2c1C1CCN(S(=O)(=O)c2ccccc2)CC1 [Compound 86, 3-{3-[1-(phenylsulfonyl)piperidin-4-yl]-1H-indol-2-yl}pyridin-2(1H)-one]",< 50,< 50,< 50,< 50
153 to 157,–,"O=C(NCCCn1ccnc1)c1ccc2[nH]c(-c3ccc[nH]c3=O)c(-c3ccccc3)c2c1 [Compound 6, N-[3-(1H-imidazol-1-yl)propyl]-2-(2-oxo-1,2-dihydropyridin-3-yl)-3-phenyl-1H-indole-5-carboxamide]",50 to 79,50 to 79,80 to 100,80 to 100
125 to 130,–,"O=C(NCCCN1CCOCC1)c1ccc2[nH]c(-c3ccc[nH]c3=O)c(-c3cc(Cl)cc(Cl)c3)c2c1 [Compound 75, 3-(3,5-dichlorophenyl)-N-(3-morpholin-4-ylpropyl)-2-(2-oxo-1,2-dihydropyridin-3-yl)-1H-indole-5-carboxamide]",80 to 100,80 to 100,80 to 100,80 to 100
189 to 191,80 to 100,"O=C(NCC1CCNCC1)c1ccc2[nH]c(-c3ccc[nH]c3=O)c(-c3ccccc3)c2c1 [Compound 4, 2-(2-oxo-1,2-dihydropyridin-3-yl)-3-phenyl-N-(piperidin-4-ylmethyl)-1H-indole-5-carboxamide]",–,–,–,–
171 to 177,80 to 100,"O=C(c1ccc2[nH]c(-c3ccc[nH]c3=O)c(-c3ccccc3)c2c1)N1CCc2ccccc2C1 [Compound 28, 3-[5-(3,4-dihydroisoquinolin-2(1H)-ylcarbonyl)-3-phenyl-1H-indol-2-yl]pyridin-2(1H)-one]",80 to 100,–,80 to 100,80 to 100
154 to 162,< 50,"COc1ccc(NC(=O)c2ccc3[nH]c(-c4ccc[nH]c4=O)c(-c4ccc(-c5ccccc5)cc4)c3c2)cc1 [Compound 48, 3-biphenyl-4-yl-N-(4-methoxyphenyl)-2-(2-oxo-1,2-dihydropyridin-3-yl)-1H-indole-5-carboxamide]",50 to 79,–,50 to 79,50 to 79
–,80 to 100,"O=C(NCCCN1CCOCC1)c1ccc2[nH]c(-c3ccc[nH]c3=O)c(-c3ccc(F)cc3F)c2c1 [Compound 77, 3-(2,4-difluorophenyl)-N-(3-morpholin-4-ylpropyl)-2-(2-oxo-1,2-dihydropyridin-3-yl)-1H-indole-5-carboxamide]",< 50,< 50,< 50,< 50
294 to 296,–,"O=C(c1ccccc1)N1CCC(c2c(-c3ccc[nH]c3=O)[nH]c3ccccc23)CC1 [Compound 87, 3-[3-(1-benzoylpiperidin-4-yl)-1H-indol-2-yl]pyridin-2(1H)-one]",< 50,80 to 100,< 50,< 50
233 to 236,50 to 79,"O=C(NC1CCNCC1)c1ccc2[nH]c(-c3ccc[nH]c3=O)c(-c3ccccc3)c2c1 [Compound 3, 2-(2-oxo-1,2-dihydropyridin-3-yl)-3-phenyl-N-piperidin-4-yl-1H-indole-5-carboxamide]",–,–,–,–
151 to 158,–,"O=C(NCCCN1CCOCC1)c1cc2c3c(c1)c(-c1ccccc1)c(-c1ccc[nH]c1=O)n3CCC2 [Compound 7, N-(3-morpholin-4-ylpropyl)-2-(2-oxo-1,2-dihydropyridin-3-yl)-1-phenyl-5,6-dihydro-4H-pyrrolo[3,2,1-ij]quinoline-8-carboxamide]",< 50,< 50,< 50,–
101 to 110,–,"O=C(c1ccc2[nH]c(-c3ccc[nH]c3=O)c(-c3ccc(-c4ccccc4)cc3)c2c1)N1CCc2ccccc2C1 [Compound 47, 3-[3-biphenyl-4-yl-5-(3,4-dihydroisoquinolin-2(1H)-ylcarbonyl)-1H-indol-2-yl]pyridin-2(1H)-one]",50 to 79,< 50,50 to 79,< 50
–,50 to 79,"CN1CCC(N2CCN(C(=O)c3ccc4[nH]c(-c5ccc[nH]c5=O)c(-c5ccc(-c6ccccc6)cc5)c4c3)CC2)CC1 [Compound 50, 3-(3-biphenyl-4-yl-5-{[4-(1-methylpiperidin-4-yl)piperazin-1-yl]carbonyl}-1H-indol-2-yl)pyridin-2(1H)-one]",80 to 100,80 to 100,80 to 100,80 to 100
–,50 to 79,"O=C(NCCc1ccccn1)c1ccc2[nH]c(-c3ccc[nH]c3=O)c(-c3ccc(-c4ccccc4)cc3)c2c1 [Compound 39, 3-biphenyl-4-yl-2-(2-oxo-1,2-dihydropyridin-3-yl)-N-(2-pyridin-2-ylethyl)-1H-indole-5-carboxamide]",80 to 100,80 to 100,80 to 100,80 to 100
–,80 to 100,"O=C(NCCCN1CCOCC1)c1ccc2[nH]c(-c3ccc[nH]c3=O)c(-c3cc(F)ccc3F)c2c1 [Compound 60, 3-(2,5-difluorophenyl)-N-(3-morpholin-4-ylpropyl)-2-(2-oxo-1,2-dihydropyridin-3-yl)-1H-indole-5-carboxamide]",50 to 79,50 to 79,80 to 100,80 to 100
–,80 to 100,"O=C(c1ccc2[nH]c(-c3ccc[nH]c3=O)c(-c3ccc(-c4ccccc4)cc3)c2c1)N1CCN(CCN2CCOCC2)CC1 [Compound 37, 3-(3-biphenyl-4-yl-5-{[4-(2-morpholin-4-ylethyl)piperazin-1-yl]carbonyl]-1H-indol-2-yl)pyridin-2(1H)-one]",80 to 100,80 to 100,80 to 100,80 to 100
–,80 to 100,"COc1ccc(-c2c(-c3ccc[nH]c3=O)[nH]c3ccc(C(=O)NCCCN4CCOCC4)cc23)cc1 [Compound 80, 3-(4-methoxyphenyl)-N-(3-morpholin-4-ylpropyl)-2-(2-oxo-1,2-dihydropyridin-3-yl)-1H-indole-5-carboxamide]",50 to 79,50 to 79,80 to 100,50 to 79

SMILES,melting point [°C],inhibition at 30 µM (IGF-1R) [%],inhibition at 10 µM (DLD-1) [%],inhibition at 10 µM (MDA-MB-231) [%],inhibition at 10 µM (KATO III) [%],inhibition at 10 µM (NCI-H1299) [%]
"O=c1[nH]cccc1-c1[nH]c2ccccc2c1C1CCN(Cc2ccccc2)CC1 [Compound 85, 3-[3-(1-benzylpiperidin-4-yl)-1H-indol-2-yl]pyridin-2(1H)-one]",135 to 139,–,< 50,< 50,< 50,–
